Key:
ARPE-19 cells [1] = test: Clonogenic survival assay, ARPE-19; format: cell-based, human; settings: for effect on normal ARPE-19 cell line in detailed clonogenic assay: different concentrations
Protocol: (§1) The human EOC cell lines used (TOV81D, TOV112D, OV90, TOV21G, OV866(2), TOV1369(R), OV1369(R2), TOV1946, OV1946, TOV2295(R), OV4485) were derived in our laboratory from patients' tumors (TOV) or ascites (OV). All EOC cell lines were maintained in a low oxygen condition of 7% O2 and 5% CO2 and grown in OSE medium (Wisent, Montreal, QC) supplemented with 10% FBS (Wisent), 0.5 μg/mL amphotericin B (Wisent) and 50 μg/mL gentamicin (Life Technologies Inc., Burlington, ON). The human retinal epithelial cell line ARPE-19 was purchased from American Type Culture Collection (ATCC, Manassas, Va.) and maintained in DMEM-F12 (Wisent) supplemented with 10% FBS (Wisent), 0.5 μg/mL amphotericin B (Wisent) and 50 μg/mL gentamicin (Life Technologies Inc.).
(§2) Clonogenic assays were performed as previously described. Colonies were counted under a stereo microscope and reported as percent of control. IC50 values were determined using Graph Pad Prism 5 software (GraphPad Software Inc., San Diego, Calif.). Each experiment was performed in duplicate and repeated three times. Sensitivity of the cell lines to small molecules inhibitors of Ran was assessed using a concentration range of 0-50 μM.
(§3) Small molecules inhibitors of Ran were dissolved in 100% dimethyl sulfoxide (DMSO) and then further diluted in complete culture media for in vitro experiments. Drugs were added 24 hours after seeding.

Ran-GTP [2] = molecular target: T1, Ran-GTP (Homo sapiens, UniProt P62826); test: Ran activation (Ran-GTP pull-down) assay in TOV112D cells; format: cell-based; settings: 1 hour treatment, vs DMSO
Protocol: Cells were seeded onto 6-well tissue culture plates in such a way that cell confluence reaches approximately 70% the day of experiment. The day of experiment cells were treated for 1 hour with the indicated compounds prior to protein extraction and quantification. Assays were performed using the Ran activation assay kit (Cell Biolabs). Briefly, 400 μg of lysates were incubated for one hour at 4° C. with agarose beads conjugated to RANBP1, which specifically binds Ran-GTP. Beads were pelleted, washed, and re-suspended in SDS-PAGE buffer, followed by immunoblotting with an anti-Ran antibody.

TOV112D cells [3] = test: Clonogenic survival assay, TOV112D; format: cell-based, human; settings: for IC50: Homo sapiens, read-out: IC50 value for the TOV112D cell line by clonogenic assay; for IC50 / IC50 value for the TOV112D cell line by clonogenic assay: TOV112D
Protocol: as §1, §2, §3

[4] = molecular target: T2, recombinant human Ran protein (Homo sapiens, UniProt P62826); test: Surface Plasmon Resonance (SPR) binding to immobilized Ran
T2 construct: Recombinant Ran protein was purchased from Sigma-Aldrich Inc. (R3152)
Protocol: SPR experiments were carried out using the Biacore 3000 system. Recombinant Ran protein was purchased from Sigma-Aldrich Inc. (R3152). The running buffer contained PBS, pH7.4, 1 mM GDP, 2 mM MgCl2 and 0.2% DMSO. The regeneration buffer contained 10 mM glycine (pH 2.5). Ran-GDP protein was immobilized onto a CM5 chip; samples of compounds in running buffer were injected at 30 μL/min for 10 minutes contact time followed by 5 minutes regeneration. Kd was calculated using the GraphPad Prism 5 software.

ARPE-19 cells [5] = test: IncuCyte cell proliferation assay, ARPE-19; format: cell-based, human; settings: for cell growth of ARPE-19 (new M36 analogs screen): 40 μM; for effect on normal ARPE-19 cells at low concentrations: 0.5 to 2.5 μM
Protocol: as §1
(§4) Cells (2,000 cells/well) were plated in a 96-well plate. The next day, compounds were added at the indicated concentrations. Following treatment, cell confluence was imaged by phase contrast using the IncuCyte live cell monitoring system (Essen BioScience, Ann Arbor, Mich.). Frames were captured at 2-hour intervals using a 10× objective. For Ran knock down experiments, cells were seeded in a 96-well plate (4,000 cells/well) directly after transfection. Cell confluence monitoring started the next day as described above.
as §3

TOV112D cells [6] = test: IncuCyte cell proliferation assay, TOV112D; format: cell-based, human; settings: for cell growth of TOV112D (new M36 analogs screen): 40 μM
Protocol: as §1, §4, §3

[7] = system: breast cancer cell lines (MDA231, MDA468, HCC1806, ZR75, T47D, BT474, HCC1954); test: Cell proliferation, breast cancer cell lines; format: cell-based
[8] = Tolerance test in NRG mice; format: in vivo; settings: daily i.p. 75 mg/kg for 15 days
Protocol: For the tolerance test, M36 and QR20 compounds were dissolved in DMSO 10%, Kolliphor® EL 10%, PEG-400 20% and PBS 60% and injected intraperitoneally into 6-week-old female Nod Rag Gamma (NRG) mice (The Jackson laboratory, Bar Harbor, Me.) daily at 75 mg/kg. During this study, mice (n=3) were monitored for survival and weight loss/gain.

[9] = Pharmacokinetics in CD1 mice; format: in vivo; settings: 50 mg/kg
Protocol: For the pharmacokinetic studies, 6-week-old female CD1 mice (Charles River laboratories, Senneville, QC, Canada) received a single intravenous or intraperitoneal injection of M36 or QR20 (50 mg/kg), dissolved in DMSO 10%, Kolliphor® EL 10%, PEG-400 20% and PBS 60% (QR20 was also dissolved in DMSO 10%, PBS 90%). For each time point (15 minutes, 30 minutes, […], 1 hour, 2 hours and 6 hours), 3 mice were sacrificed and blood was collected by cardiac puncture. Thereafter, the plasma level of each compound was measured by mass spectrometry.

[10] = system: other aneuploid EOC cells; test: IncuCyte cell proliferation assay, other aneuploid EOC cell lines; format: cell-based, human; settings: 80 μM
Protocol: as §1, §4, §3

Ran-GTP [11] = molecular target: T1, Ran-GTP; test: Ran-GTP immunofluorescence in TOV112D cells; format: cell-based; settings: TOV112D cells vs DMSO-treated
Protocol: M36 and R28-treated and control TOV112D cells grown on coverslips were washed with 1×PBS, fixed in 4% paraformaldehyde and permeabilized with 0.25% Triton X-100 (Sigma-Aldrich Inc.). After blocking (4% BSA and 4% FBS in PBS), coverslips were incubated with the monoclonal anti-RanGTP antibody (26915, NewEastBioscences) diluted 1:100 in blocking buffer for 2 hours at room temperature. Subsequently, samples were incubated with Cy-5 secondary antibody (1:500, Life Technologies Inc.) for 1 hour and coverslips were mounted onto slides using Prolong® Gold anti-fade reagent with DAPI (Life Technologies Inc.). Samples were visualized under a Zeiss microscope (Zeiss observer Z1) with a 20× objective.

[12] = system: prostate cancer cell lines (LNCaP, 22RV1, PC3, DU145); test: Cell proliferation, prostate cancer cell lines; format: cell-based
cleaved PARP = test: Apoptosis by PARP cleavage (Western blot); format: cell-based, human; settings: 96 hours after treatment
Protocol: Cells were lysed with RIPA buffer containing protease inhibitors. Whole cell lysates were run through a Bradford assay (Thermo Fisher Scientific) for protein quantification. Around 25-50 μg of proteins were separated onto 12.5% SDS-PAGE and transferred onto nitrocellulose membranes. The resultant blots were probed with Ran (1:10000, sc-271376 Santa Cruz Biotechnology, Dallas, Tex.), cleaved PARP (1:1000, #9541, Cell Signaling Technology Inc., Danvers, Mass.), GAPDH (1:2500, #2118, Cell Signaling Technology Inc.) or beta-actin (1:50000, ab6276, Abcam Inc., Toronto, ON, Canada) primary antibodies overnight at 4° C. then with peroxidase-conjugated secondary antibodies for 2 hours at room temperature. Proteins were detected using enhanced chemiluminescence (Thermo Fisher Scientific).

NC(=S)[C@@H]1C[C@H](COC(=O)c2ccccc2)[C@@H](OC(=O)c2ccccc2)[C@H]1OC(=O)c1ccccc1 [M26]
colony formation of ARPE-19 cells (ARPE-19 cells [1]; single dose 10 μM): not normal cells
active Ran-GTP levels (pull-down) (Ran-GTP [2]): marked decrease in Ran-GTP levels
colony formation of TOV112D cells (TOV112D cells [3]; single dose 10 μM): specifically inhibited colony formation of EOC
binding to the immobilized Ran protein ([4]; different compound concentrations, reached saturation): concentration-dependent binding

NC(=S)[C@H]1O[C@H](COCc2ccccc2F)[C@@H](OCc2ccccc2F)[C@H]1OCc1ccccc1F [M46]
active Ran-GTP levels (pull-down) (Ran-GTP [2]): weaker than that of M36
IC50 (TOV112D cells [3]): 12.5 ± 0.36 µM

Fc1ccc(CNCc2cc(CNCc3ccc(F)cc3)cc(CNCc3ccc(F)cc3)c2)cc1 [M48]
cell growth of ARPE-19 (new M36 analogs screen) (ARPE-19 cells [5]; day 4): completely inhibited cell growth
effect on normal ARPE-19 cells at low concentrations (ARPE-19 cells [5]): also affected normal ARPE-19 cells
cell growth of TOV112D (new M36 analogs screen) (TOV112D cells [6]; day 4): completely inhibited cell growth
IC50 value for the TOV112D cell line by clonogenic assay (TOV112D cells [3]): low IC50 values

c1ccc(CNCc2cc(CNCc3ccccc3)cc(CNCc3ccccc3)c2)cc1 [M51]
cell growth of ARPE-19 (new M36 analogs screen) (ARPE-19 cells [5]; day 4): completely inhibited cell growth
effect on normal ARPE-19 cells at low concentrations (ARPE-19 cells [5]): did not affect normal cells
cell growth of TOV112D (new M36 analogs screen) (TOV112D cells [6]; day 4): completely inhibited cell growth
TOV112D cell growth at low concentrations (TOV112D cells [6]; 0.5, 1, 2.5 μM): inhibited TOV112D cell growth
IC50 (TOV112D cells [3]): ~0.66 µM
effect on breast cancer cell lines [7]: effective in one triple negative breast cancer cell line

COc1ccc(CNCc2cc(CNCc3ccc(OC)cc3)cc(CNCc3ccc(OC)cc3)c2)cc1 [M52]
cell growth of ARPE-19 (new M36 analogs screen) (ARPE-19 cells [5]; day 4): completely inhibited cell growth
effect on normal ARPE-19 cells at low concentrations (ARPE-19 cells [5]): also affected normal ARPE-19 cells
cell growth of TOV112D (new M36 analogs screen) (TOV112D cells [6]; day 4): completely inhibited cell growth
IC50 value for the TOV112D cell line by clonogenic assay (TOV112D cells [3]): low IC50 values

COc1ccc(CN(C)Cc2cc(CN(C)Cc3ccc(OC)cc3)cc(CN(C)Cc3ccc(OC)cc3)c2)cc1 [M55]
cell growth of TOV112D (new M36 analogs screen) (TOV112D cells [6]; day 4): discriminative effect between normal ARPE-19 and aneuploid TOV112D cells
cell growth of TOV112D, detailed proliferation assay (TOV112D cells [6]; 5, 10, 20 μM): specifically inhibit cell growth of the TOV112D cells even at a low concentration of 5 μM
IC50 (TOV112D cells [3]): 4.16 µM

c1ccc(CN2CCN(C(c3ccccc3)C3CCCCC3)CC2)cc1 (stereo not shown) [QR20]
tolerance [8]: well tolerated
weight loss [8]: no weight loss
ARPE-19 cell proliferation, R20 salts (ARPE-19 cells [5]; 20, 40, 80 μM): without affecting the normal ARPE-19 cells
TOV112D cell proliferation, R20 salts (TOV112D cells [6]; 20, 40, 80 μM): exactly the same activity to inhibit TOV112D cell proliferation
pharmacokinetics profile based on AUC values [9]: good pharmacokinetics profiles

c1ccc(CN2CCN(C(c3ccccc3)C3CCCCC3)CC2)cc1 (stereo not shown) [R20]
effect on normal ARPE-19 cell line in detailed clonogenic assay (ARPE-19 cells [1]): no effect
active Ran-GTP levels (pull-down) (Ran-GTP [2]): concentration-dependent decrease in Ran-GTP levels
cell proliferation of TOV112D (1292 analogs screen) (TOV112D cells [6]; 80 μM, vs normal ARPE-19): greater efficacy in inhibiting cell proliferation
IC50 (TOV112D cells [3]): 9.91 ± 0.36 µM
cell proliferation of other aneuploid EOC cells [10]: inhibited cell proliferation

COc1ccc(CN2CCN(Cc3ccc(OC)c(N(C(=O)Nc4cccc(F)c4)C(=O)Nc4cccc(F)c4)c3)CC2)cc1 [R28]
Ran-GTP levels by immunofluorescence (Ran-GTP [11]): very low levels of active Ran-GTP
proliferation of ARPE-19 cells (R20 analogs screen) (ARPE-19 cells [5]; 20, 40 and 80 μM, day 4): without affecting normal ARPE-19 cells
proliferation of TOV112D cells (R20 analogs screen) (TOV112D cells [6]; 20, 40 and 80 μM, day 4): more efficient than compound R20 to inhibit proliferation of TOV112D cells
IC50 (TOV112D cells [3]): 2.99 ± 0.19 µM
effect on prostate cancer cell lines [12]: effective in both cancer types
effect on breast cancer cell lines [7]: effective in both cancer types

Oc1ccc(CCCCCCc2ccc(O)cc2)cc1 [V188]
IC50 (TOV112D cells [3]): 7.6 ± 0.32 µM
Kd ([4]; Ran-GDP immobilized on CM5 chip): 0.38 µM

COc1ccc(CN2CCN(Cc3ccc(OC)cc3)CC2)cc1 [compound 1292]
effect on normal ARPE-19 cell line in detailed clonogenic assay (ARPE-19 cells [1]): did not have any effect
active Ran-GTP levels (pull-down) (Ran-GTP [2]): concentration-dependent decrease in Ran-GTP levels
IC50 (TOV112D cells [3]): 15 ± 0.37 µM
apoptosis (cleaved PARP on Western blot) (cleaved PARP): induction of apoptosis
cell proliferation of other aneuploid EOC cells [10]: inhibited cell proliferation

— US20200246365A1, “COMPOUNDS, PHARMACEUTICAL COMPOSITIONS AND USE THEREOF AS INHIBITORS OF RAN GTPASE” (THE ROYAL INSTITUTION FOR THE ADVANCEMENT OF LEARNING / …, priority 2017, published 2020)
